Assay results reported in ChEMBL document CHEMBL3885881, “DrugMatrix”.

Species on record: Rattus norvegicus
Assay: DrugMatrix - Regimen: Daily Repeat
Format: toxicity, organism-based, Sprague-Dawley
Parameters: regimen Daily Repeat, gender Male, age 6-8 weeks
Conditions: in vivo, iv, vehicle 100 % SALINE; for ABSOLUTE BASOPHIL / ABSOLUTE EOSINOPHIL / ABSOLUTE LYMPHOCYTE / ABSOLUTE MONOCYTE / ABSOLUTE SEGMENTED NEUTROPHIL / BASOPHIL / EOSINOPHIL / ERYTHROCYTE COUNT / HEMATOCRIT / HEMOGLOBIN / LEUKOCYTE COUNT / LYMPHOCYTE / MEAN CORPUSCULAR HEMOGLOBIN / MEAN CORPUSCULAR HEMOGLOBIN CONCENTRATION / MEAN CORPUSCULAR VOLUME / MONOCYTE / NEUTROPHIL / NUCLEATED RED BLOOD CELLS / PLATELET COUNT: tissue Blood; for ALANINE AMINOTRANSFERASE / ALBUMIN / ALKALINE PHOSPHATASE / ASPARTATE AMINOTRANSFERASE / BLOOD UREA NITROGEN / CARBON DIOXIDE / CHLORIDE / CHOLESTEROL / CREATINE PHOSPHOKINASE / CREATININE / GLUCOSE / LACTATE DEHYDROGENASE / LIPASE / PHOSPHORUS / POTASSIUM / SODIUM / TOTAL BILIRUBIN / TOTAL PROTEIN / URIC ACID: tissue Plasma
[1] = 27 mg/kg, 72 h, dose level High, time 3 day
[2] = 27 mg/kg, 120 h, dose level High, time 5 day
[3] = […], 72 h, dose 2.7 mg/Kg, dose level Low, time 3 day
[4] = […], 120 h, dose 2.7 mg/Kg, dose level Low, time 5 day

COC(=O)CCc1ccc(OCC(O)CNC(C)C)cc1 (configuration not stated) [ESMOLOL]
ABSOLUTE BASOPHIL [1]: 0 CELLS/uL | ABSOLUTE EOSINOPHIL [1]: 31.33 CELLS/uL | ABSOLUTE LYMPHOCYTE [1]: 10926.67 CELLS/uL | ABSOLUTE MONOCYTE [1]: 68.67 CELLS/uL | ABSOLUTE SEGMENTED NEUTROPHIL [1]: 673.33 CELLS/uL | BASOPHIL [1]: 0% | EOSINOPHIL [1]: 0.33% | ERYTHROCYTE COUNT [1]: 5.92 x10E6/uL | HEMATOCRIT [1]: 37.53% | HEMOGLOBIN [1]: 14.47 G/DL | LEUKOCYTE COUNT [1]: 11.7 x10E3/uL | LYMPHOCYTE [1]: 92.67% | MEAN CORPUSCULAR HEMOGLOBIN [1]: 24.37 pg | MEAN CORPUSCULAR HEMOGLOBIN CONCENTRATION [1]: 38.63 G/DL | MEAN CORPUSCULAR VOLUME [1]: 63.03 fL | MONOCYTE [1]: 0.67% | NEUTROPHIL [1]: 6.33% | NUCLEATED RED BLOOD CELLS [1]: 0 /100WBC | PLATELET COUNT [1]: 1320 x10E3/uL | ALANINE AMINOTRANSFERASE [1]: 71.33 u/L | ALBUMIN [1]: 4.1 G/DL | ALKALINE PHOSPHATASE [1]: 456.33 u/L | ASPARTATE AMINOTRANSFERASE [1]: 161 u/L | BLOOD UREA NITROGEN [1]: 16.67 mg/dL | CARBON DIOXIDE [1]: 28.67 mmol/L | CHLORIDE [1]: 100.33 MEQ/L | CHOLESTEROL [1]: 75.67 mg/dL | CREATINE PHOSPHOKINASE [1]: 1751 u/L | CREATININE [1]: 0.23 mg/dL | GLUCOSE [1]: 225 mg/dL | LACTATE DEHYDROGENASE [1]: 862 u/L | LIPASE [1]: 12.33 u/L | PHOSPHORUS [1]: 14.17 mg/dL | POTASSIUM [1]: 8.56 MEQ/L | SODIUM [1]: 142.57 MEQ/L | TOTAL BILIRUBIN [1]: 0.4 mg/dL | TOTAL PROTEIN [1]: 5.8 G/DL | URIC ACID [1]: 4.13 mg/dL | ABSOLUTE BASOPHIL [2]: 0 CELLS/uL | ABSOLUTE EOSINOPHIL [2]: 0 CELLS/uL | ABSOLUTE LYMPHOCYTE [2]: 16580.67 CELLS/uL | ABSOLUTE MONOCYTE [2]: 300 CELLS/uL | ABSOLUTE SEGMENTED NEUTROPHIL [2]: 1652.67 CELLS/uL | BASOPHIL [2]: 0% | EOSINOPHIL [2]: 0% | ERYTHROCYTE COUNT [2]: 5.69 x10E6/uL | HEMATOCRIT [2]: 36.33% | HEMOGLOBIN [2]: 14.23 G/DL | LEUKOCYTE COUNT [2]: 18.53 x10E3/uL | LYMPHOCYTE [2]: 89.33% | MEAN CORPUSCULAR HEMOGLOBIN [2]: 25 pg | MEAN CORPUSCULAR HEMOGLOBIN CONCENTRATION [2]: 39.2 G/DL | MEAN CORPUSCULAR VOLUME [2]: 63.8 fL | MONOCYTE [2]: 1.67% | NEUTROPHIL [2]: 9% | NUCLEATED RED BLOOD CELLS [2]: 0 /100WBC | PLATELET COUNT [2]: 1133.67 x10E3/uL | ALANINE AMINOTRANSFERASE [2]: 63.33 u/L | ALBUMIN [2]: 4.27 G/DL | ALKALINE PHOSPHATASE [2]: 363.67 u/L | ASPARTATE AMINOTRANSFERASE [2]: 126 u/L | BLOOD UREA NITROGEN [2]: 15.33 mg/dL | CARBON DIOXIDE [2]: 27.33 mmol/L | CHLORIDE [2]: 99.67 MEQ/L | CHOLESTEROL [2]: 70.33 mg/dL | CREATINE PHOSPHOKINASE [2]: 284 u/L | CREATININE [2]: 0.22 mg/dL | GLUCOSE [2]: 147.33 mg/dL | LACTATE DEHYDROGENASE [2]: 238.67 u/L | LIPASE [2]: 9.33 u/L | PHOSPHORUS [2]: 11 mg/dL | POTASSIUM [2]: 6.94 MEQ/L | SODIUM [2]: 142.83 MEQ/L | TOTAL BILIRUBIN [2]: 0.17 mg/dL | TOTAL PROTEIN [2]: 6.3 G/DL | URIC ACID [2]: 1.47 mg/dL | ABSOLUTE BASOPHIL [3]: 0 CELLS/uL | ABSOLUTE EOSINOPHIL [3]: 0 CELLS/uL | ABSOLUTE LYMPHOCYTE [3]: 13243.33 CELLS/uL | ABSOLUTE MONOCYTE [3]: 97.67 CELLS/uL | ABSOLUTE SEGMENTED NEUTROPHIL [3]: 1325.67 CELLS/uL | BASOPHIL [3]: 0% | EOSINOPHIL [3]: 0% | ERYTHROCYTE COUNT [3]: 5.56 x10E6/uL | HEMATOCRIT [3]: 35.9% | HEMOGLOBIN [3]: 14.23 G/DL | LEUKOCYTE COUNT [3]: 14.67 x10E3/uL | LYMPHOCYTE [3]: 90.33% | MEAN CORPUSCULAR HEMOGLOBIN [3]: 25.77 pg | MEAN CORPUSCULAR HEMOGLOBIN CONCENTRATION [3]: 39.73 G/DL | MEAN CORPUSCULAR VOLUME [3]: 64.73 fL | MONOCYTE [3]: 0.67% | NEUTROPHIL [3]: 9% | NUCLEATED RED BLOOD CELLS [3]: 0 /100WBC | PLATELET COUNT [3]: 1093.67 x10E3/uL | ALANINE AMINOTRANSFERASE [3]: 50 u/L | ALBUMIN [3]: 4.43 G/DL | ALKALINE PHOSPHATASE [3]: 440 u/L | ASPARTATE AMINOTRANSFERASE [3]: 82 u/L | BLOOD UREA NITROGEN [3]: 17.33 mg/dL | CARBON DIOXIDE [3]: 28.67 mmol/L | CHLORIDE [3]: 100.33 MEQ/L | CHOLESTEROL [3]: 69.33 mg/dL | CREATINE PHOSPHOKINASE [3]: 423.67 u/L | CREATININE [3]: 0.22 mg/dL | GLUCOSE [3]: 193 mg/dL | LACTATE DEHYDROGENASE [3]: 155 u/L | LIPASE [3]: 9 u/L | PHOSPHORUS [3]: 12.67 mg/dL | POTASSIUM [3]: 7.24 MEQ/L | SODIUM [3]: 143.23 MEQ/L | TOTAL BILIRUBIN [3]: 0.23 mg/dL | TOTAL PROTEIN [3]: 5.97 G/DL | URIC ACID [3]: 2.6 mg/dL | ABSOLUTE BASOPHIL [4]: 0 CELLS/uL | ABSOLUTE EOSINOPHIL [4]: 0 CELLS/uL | ABSOLUTE LYMPHOCYTE [4]: 9825 CELLS/uL | ABSOLUTE MONOCYTE [4]: 143 CELLS/uL | ABSOLUTE SEGMENTED NEUTROPHIL [4]: 698.67 CELLS/uL | BASOPHIL [4]: 0% | EOSINOPHIL [4]: 0% | ERYTHROCYTE COUNT [4]: 6.36 x10E6/uL | HEMATOCRIT [4]: 40.2% | HEMOGLOBIN [4]: 15.63 G/DL | LEUKOCYTE COUNT [4]: 10.67 x10E3/uL | LYMPHOCYTE [4]: 92% | MEAN CORPUSCULAR HEMOGLOBIN [4]: 24.57 pg | MEAN CORPUSCULAR HEMOGLOBIN CONCENTRATION [4]: 38.87 G/DL | MEAN CORPUSCULAR VOLUME [4]: 63.2 fL | MONOCYTE [4]: 1.33% | NEUTROPHIL [4]: 6.67% | NUCLEATED RED BLOOD CELLS [4]: 0.33 /100WBC | PLATELET COUNT [4]: 1330 x10E3/uL | ALANINE AMINOTRANSFERASE [4]: 35.67 u/L | ALBUMIN [4]: 4.67 G/DL | ALKALINE PHOSPHATASE [4]: 337 u/L | ASPARTATE AMINOTRANSFERASE [4]: 68.67 u/L | BLOOD UREA NITROGEN [4]: 21.67 mg/dL | CARBON DIOXIDE [4]: 29.67 mmol/L | CHLORIDE [4]: 103 MEQ/L | CHOLESTEROL [4]: 101 mg/dL | CREATINE PHOSPHOKINASE [4]: 276 u/L | CREATININE [4]: 0.21 mg/dL | GLUCOSE [4]: 155 mg/dL | LACTATE DEHYDROGENASE [4]: 214.33 u/L | LIPASE [4]: 10 u/L | PHOSPHORUS [4]: 12.37 mg/dL | POTASSIUM [4]: 6.64 MEQ/L | SODIUM [4]: 148.6 MEQ/L | TOTAL BILIRUBIN [4]: 0.23 mg/dL | TOTAL PROTEIN [4]: 6.97 G/DL | URIC ACID [4]: 2 mg/dL
